In one series the test system is P. falciparum D6. Put plainly: Malaria SYBR Green Fluorescence Assay, D6 strain. The series is classed as cell-based, Plasmodium falciparum. The following applies: for D6: SYBR Green Assay.
A further series has as its system P. falciparum W2. The series can be described thus: Malaria SYBR Green Fluorescence Assay, W2 strain. Format: cell-based, Plasmodium falciparum. The following applies: for W2: SYBR Green Assay.
For a further series, the system named is P. falciparum C235. Put plainly: Malaria SYBR Green Fluorescence Assay, C235 strain. The series is classed as cell-based, Plasmodium falciparum. The following applies: for C235: SYBR Green Assay.
In the next series the test system is P. berghei. The series can be described thus: Thompson Test, in vivo mouse malaria assay. More on the design: species or system mice (ICR strain).
Series [1] addresses hERG potassium ion channel (Homo sapiens, UniProt Q12809). Put plainly: hERG patch clamp assay (% inhibition at 10 μM). The note with it: for hERG (% inhibition): 10 μM. Background: The hERG channel carries a current that helps repolarise heart muscle cells.
Where [2] appears, read: (160 × 3): 160 mg/kg for 3 days.
[3] abbreviates: % inhibition at 10 μM, patch clamp.

Chain of hERG potassium ion channel (Q12809 whole entry): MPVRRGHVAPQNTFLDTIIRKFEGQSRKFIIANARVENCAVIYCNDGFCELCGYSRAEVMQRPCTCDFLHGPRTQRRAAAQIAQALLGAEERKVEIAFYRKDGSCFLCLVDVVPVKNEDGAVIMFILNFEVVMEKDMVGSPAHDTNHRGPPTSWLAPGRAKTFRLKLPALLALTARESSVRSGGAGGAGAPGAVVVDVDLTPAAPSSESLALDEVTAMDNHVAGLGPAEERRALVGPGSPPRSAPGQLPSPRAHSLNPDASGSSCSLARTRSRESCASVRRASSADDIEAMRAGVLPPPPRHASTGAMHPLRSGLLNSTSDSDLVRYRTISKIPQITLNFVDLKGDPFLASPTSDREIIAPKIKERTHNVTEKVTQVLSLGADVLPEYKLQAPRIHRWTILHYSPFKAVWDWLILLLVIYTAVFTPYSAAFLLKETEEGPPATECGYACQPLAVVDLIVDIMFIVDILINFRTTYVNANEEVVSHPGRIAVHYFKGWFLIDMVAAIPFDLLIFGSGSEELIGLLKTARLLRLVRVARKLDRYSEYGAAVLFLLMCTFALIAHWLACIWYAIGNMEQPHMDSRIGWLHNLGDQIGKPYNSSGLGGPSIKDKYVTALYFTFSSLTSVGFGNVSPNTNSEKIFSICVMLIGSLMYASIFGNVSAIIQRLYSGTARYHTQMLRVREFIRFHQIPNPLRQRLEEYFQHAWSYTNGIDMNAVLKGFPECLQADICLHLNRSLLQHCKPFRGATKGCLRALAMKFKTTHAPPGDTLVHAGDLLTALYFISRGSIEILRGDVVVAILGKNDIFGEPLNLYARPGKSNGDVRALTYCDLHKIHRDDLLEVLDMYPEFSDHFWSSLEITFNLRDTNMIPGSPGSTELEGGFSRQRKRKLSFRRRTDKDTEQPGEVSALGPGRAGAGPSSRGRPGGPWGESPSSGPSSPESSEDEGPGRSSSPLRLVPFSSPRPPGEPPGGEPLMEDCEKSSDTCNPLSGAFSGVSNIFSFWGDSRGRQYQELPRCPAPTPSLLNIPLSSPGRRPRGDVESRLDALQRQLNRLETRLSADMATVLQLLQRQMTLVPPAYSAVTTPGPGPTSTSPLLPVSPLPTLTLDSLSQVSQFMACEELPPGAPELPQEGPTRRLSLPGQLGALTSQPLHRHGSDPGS

`CC(C)(N)CNc1nc(-c2cc(Cl)cc(Cl)c2)nc(C(Cl)(Cl)Cl)n1` [Compound 195] gave a D6 in the series on P. falciparum D6 of 6 ng/mL. The molecule also yielded a W2 in the series on P. falciparum W2 of 6 ng/mL. For the same molecule, the C235 in the series with P. falciparum C235 is 3 ng/mL. Further, the “In vivo Results Thompson Assay (n/N Cures or Suppressive)” value (shortened to “In vivo Results Thompson Assay”) is listed as 2/5 in the series on P. berghei ((40 × 3): 40 mg/kg for 3 days), 5/5 with P. berghei ((80 × 3): 80 mg/kg for 3 days) and “Cures; (160 × 3) 5/5 Cures” in the series with P. berghei (setting [2]). The hERG in series [1] (setting [3]) amounted to 3%.

In turn, `CC(C)(N)CNc1nc(-c2ccc(S(C)(=O)=O)cc2)nc(C(Cl)(Cl)Cl)n1` [Compound 97] registered a D6 in the series on P. falciparum D6 of 26 ng/mL. In the series on P. falciparum W2, this molecule returned a W2 of 20 ng/mL. Moreover, in the series with P. falciparum C235, the C235 is 33 ng/mL. In addition, the entries for the “In vivo Results Thompson Assay” value in the series with P. berghei ((80 × 3): 80 mg/kg for 3 days) and with P. berghei (setting [2]) were “(80 × 3) Suppressive;” and “(160 × 3) Suppressive”, respectively. The same molecule showed a hERG in series [1] (setting [3]) of 35%.

`CN1CCCN(c2nc(-c3ccc(Cl)c(Cl)c3)nc(C(Cl)(Cl)Cl)n2)CC1` [Compound 113]: the D6 in the series on P. falciparum D6 is on record as 33 ng/mL. This molecule also displayed a W2 in the series on P. falciparum W2 of 23 ng/mL. The molecule also yielded a C235 in the series on P. falciparum C235 of 35 ng/mL. For the same molecule, the “In vivo Results Thompson Assay” value was “Suppressive” with P. berghei ((80 × 3): 80 mg/kg for 3 days) and 4/5 in the series with P. berghei (setting [2]). This molecule showed a hERG in series [1] (setting [3]) of 64%.

`CS(=O)(=O)c1ccc(-c2nc(N3CC4CC3CN4)nc(C(Cl)(Cl)Cl)n2)cc1` (centres unmarked) [Compound 724, CS(═O)(═O)c1ccc(cc1)c2nc(nc(n2)C(Cl)(Cl)Cl)N3CC4CC3CN4] displayed a D6 in the series with P. falciparum D6 of 106 ng/mL. In the series on P. falciparum W2, this molecule yielded a W2 of 71 ng/mL. The same molecule had a C235 in the series on P. falciparum C235 of 110 ng/mL. Further, the “In vivo Results Thompson Assay” value in the series with P. berghei ((80 × 3): 80 mg/kg for 3 days) was “(80 × 3) Suppressive”. In series [1] (hERG activity as % inhibition), this molecule gave a hERG of 70%.

On to “ClC(Cl)(Cl)c1ccc(cc1)c2nc(nc(n2)C(Cl)(Cl)Cl)N3CC4CC3CN4 [Compound 722]”, for which, in the series on P. falciparum D6, the D6 was 9 ng/mL. In the series with P. falciparum W2, this molecule showed a W2 of 5 ng/mL. In the series on P. falciparum C235, the C235 is on record as 12 ng/mL. Further, the “In vivo Results Thompson Assay” value was “Suppressive” with P. berghei ((80 × 3): 80 mg/kg for 3 days) and 5/5 in the series with P. berghei (setting [2]). The molecule also showed a hERG in series [1] (hERG activity as % inhibition) of 14%.

Turning to `COc1cccc(-c2nc(NC3CCN(C)CC3)nc(C(Cl)(Cl)Cl)n2)c1` [Compound 193], in the series with P. falciparum D6, the D6 was 29 ng/mL. This molecule displayed a W2 in the series with P. falciparum W2 of 22 ng/mL. This molecule came in with a C235 in the series with P. falciparum C235 of 17 ng/mL. In addition, the “In vivo Results Thompson Assay” value in the series on P. berghei ((80 × 3): 80 mg/kg for 3 days) is given as “(80 × 3) Suppressive”. In series [1] (setting [3]), this molecule had a hERG of 93%.

For `CCN1CCCC(Nc2nc(-c3ccc(C(C)(C)C)cc3)nc(C(Cl)(Cl)Cl)n2)C1` (centres unmarked) [Compound 79], the D6 in the series on P. falciparum D6 is recorded as 26 ng/mL. The molecule also registered a W2 with P. falciparum W2 of 25 ng/mL. The molecule further showed a C235 with P. falciparum C235 of 36 ng/mL. Besides, the “In vivo Results Thompson Assay” value in the series with P. berghei ((80 × 3): 80 mg/kg for 3 days) is on record as “(80 × 3) Suppressive”. Besides, the hERG in series [1] (setting [3]) came to 51%.

With `CN1CCN(c2nc(-c3ccc(C(Cl)(Cl)Cl)cc3)nc(C(Cl)(Cl)Cl)n2)CC1` [Compound 99], the D6 with P. falciparum D6 is on record as 59 ng/mL. In the series with P. falciparum W2, this molecule returned a W2 of 12 ng/mL. In the series with P. falciparum C235, the C235 is 21 ng/mL. Moreover, in the series on P. berghei ((80 × 3): 80 mg/kg for 3 days), the “In vivo Results Thompson Assay” value is listed as “(80 × 3) Suppressive”. The molecule further gave a hERG in series [1] (setting [3]) of 16%.

As for `CCC(N)(CC)CNc1nc(-c2ccc(S(C)(=O)=O)cc2)nc(C(Cl)(Cl)Cl)n1` [Compound 365], the “D6 (SYBR Green Assay IC50)” value in the series on P. falciparum D6 was found to be 0.005 µg/mL. For the same molecule, the “W2 (SYBR Green Assay IC50)” value with P. falciparum W2 was 0.005 µg/mL. Further, in the series with P. falciparum C235, the “C235 (SYBR Green Assay IC50)” value was found to be 0.01 µg/mL. Also, the “In vivo Results Thompson Assay” value in the series on P. berghei ((80 × 3): 80 mg/kg for 3 days) is listed as “(80 × 3) Suppressive”. The “hERG (% inhibition)” value in series [1] was 69%.

As to “CCN1CCC(CC1)C(C)Nc2nc(Nc3ccc(Cl)c(Cl)c3)nc(n2)C(Cl)(Cl)Cl [Compound 643]”, the “D6 (SYBR Green Assay IC50)” value in the series with P. falciparum D6 amounted to 0.047 µg/mL. Also, the “W2 (SYBR Green Assay IC50)” value with P. falciparum W2 was 0.033 µg/mL. Also, in the series on P. falciparum C235, the “C235 (SYBR Green Assay IC50)” value is 0.048 µg/mL. Further, the “In vivo Results Thompson Assay” value in the series on P. berghei ((80 × 3): 80 mg/kg for 3 days) was “(80 × 3) 2/5 Cures”. In series [1], the “hERG (% inhibition)” value stood at 100%.

In turn, `CC(C)(C)c1ccc(-c2nc(NCC3(N)CCOCC3)nc(C(Cl)(Cl)Cl)n2)cc1` [Compound 314] showed a D6 with P. falciparum D6 of 7 ng/mL. The W2 with P. falciparum W2 was determined as 2 ng/mL. The molecule also returned a C235 in the series with P. falciparum C235 of 16 ng/mL. Besides, the “In vivo Results Thompson Assay” value with P. berghei ((80 × 3): 80 mg/kg for 3 days) is “(80 × 3) Suppressive”. In series [1] (setting [3]), this molecule displayed a hERG of 5%.

The molecule “COC1═CC═CC(═C1)C1═NC(NCC2(N)CCCCC2)═NC(═N1)C(Cl)(Cl)Cl [Compound 661]” gave a D6 in the series on P. falciparum D6 of 3 ng/mL. For the same molecule, in the series with P. falciparum W2, the W2 came to 2 ng/mL. In the series with P. falciparum C235, the C235 is listed as 8 ng/mL. In the series on P. berghei ((80 × 3): 80 mg/kg for 3 days), the “In vivo Results Thompson Assay” value is “(80 × 3) Suppressive”. In series [1] (hERG activity as % inhibition), the hERG is 32%.

(Values after patent US9334246B2, “Substituted triazines for malaria treatment and chemoprophylaxis” (The United States of America, as represented by the …, priority 2013, dated 2016).)
